Assay results: the NIST ThermoML archive (doi:10.1016/j.jct.2014.12.027)
± gives the expanded uncertainty stated by the source.

Conditions: 101.33 kPa, Liquid, Vibrating tube method

Compound: CCCC[n+]1ccc(C)cc1.N#CC(=C=[N-])C#N [1-butyl-4-methylpyridinium tricyanomethanide]
- mass density (293.15 K): 1037.3 ± 0.9 kg/m3
- mass density (303.15 K): 1031.7 ± 0.9 kg/m3
- mass density (313.15 K): 1026.2 ± 0.9 kg/m3
- mass density (323.15 K): 1020.7 ± 0.9 kg/m3
- mass density (333.15 K): 1015.1 ± 0.9 kg/m3
- mass density (343.15 K): 1009.6 ± 0.9 kg/m3
